Data: US9974888B2, “Formulations for drug-coated medical devices” (priority 2010, dated 2018)

Test: Dye loss from coated membranes type P in stirred saline
Assay type: physicochemical
Details: water-soluble dye, stirred saline at 37° C., 5 min
Description: Membranes type P were coated either with a water-soluble dye without resveratrol or combined with resveratrol.

Structure (SMILES): Oc1ccc(C=Cc2cc(O)cc(O)c2)cc1 [Resveratrol, resveratrol]
- adhesion of the dye: significantly improved the adhesion of the dye
